Source: US20110110890A1, “Novel Inhibitors of Hepatitis C Virus Replication” (INTERMUNE, INC., priority 2009, published 2011)

Experiments:
[1] = test system: HCV Replicon; experiment: HCV Replicon inhibition; assay type: cell-based; conditions: Hepatitis C virus
[2] = target: T1, HCV NS5B polymerase (Hepatitis C virus genotype 1a, UniProt P27958); experiment: Replizyme HCV heterotemplate radioactive RNA-dependent RNA-polymerase (RdRp) assay; assay type: biochemical; conditions: pre-incubated 30 minutes at 37° C., reaction 90 minutes at 37° C.; read-out: HCV NS5B inhibition EC50
T1 construct: pre-incubated with the RNA template and NS5B polymerase protein; purchased Replizyme
T1 sequence (P27958 2421-3011): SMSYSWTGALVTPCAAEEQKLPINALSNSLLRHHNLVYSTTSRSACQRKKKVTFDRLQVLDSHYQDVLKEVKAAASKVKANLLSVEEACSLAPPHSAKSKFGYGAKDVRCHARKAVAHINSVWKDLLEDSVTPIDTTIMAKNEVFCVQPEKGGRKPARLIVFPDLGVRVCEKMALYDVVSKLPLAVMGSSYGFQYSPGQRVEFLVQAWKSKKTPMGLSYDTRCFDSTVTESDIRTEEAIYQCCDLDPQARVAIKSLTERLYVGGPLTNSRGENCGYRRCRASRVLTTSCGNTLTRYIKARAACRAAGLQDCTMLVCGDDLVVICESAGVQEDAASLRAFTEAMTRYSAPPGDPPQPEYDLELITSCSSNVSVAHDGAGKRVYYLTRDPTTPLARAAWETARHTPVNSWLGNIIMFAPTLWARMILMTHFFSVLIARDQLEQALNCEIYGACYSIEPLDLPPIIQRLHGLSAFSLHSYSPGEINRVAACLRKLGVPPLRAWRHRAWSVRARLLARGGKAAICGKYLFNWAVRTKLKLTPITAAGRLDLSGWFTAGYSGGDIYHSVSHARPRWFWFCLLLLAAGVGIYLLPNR
Protocol: The compounds were tested in the Replizyme HCV heterotemplate radioactive RNA-dependent RNA-polymerase (RdRp) assay. The test compounds were pre-incubated with the RNA template and NS5B polymerase protein at 37° C. for 30 minutes. The RdRp reaction was initiated with the addition of the NTPs to the buffer-NS5B-compound mix, and was allowed to proceed for 90 minutes at 37° C. Control reactions included: no enzyme, 5% DMSO (test compound solvent), no compound/solvent, Cordycepin-TP and HCV-796 (IC50 values used as a reference inhibition). Radioactive products were collected by applying the stopped reaction to DE-81 paper, air dried prior to washing with buffer comprising NaH2PO4 and sodium pyrophosphate to remove unincorporated ^32P-GTP in the NTP mix, and rinsed with dH2O followed by 100% ethanol. The DE-81 paper was air dried, squares cut out and placed in scintillation tubes for counting.

| Structure (SMILES) | EC50 [1] [nM] | EC50 [2] [nM] |
| --- | --- | --- |
| CC(C)(C)CCc1c(=O)c(C2=NS(=O)(=O)c3cc(NS(C)(=O)=O)ccc3N2)c(O)n2cc(F)ccc12 [Compound 104S] | < 100 | < 100 |
| CS(=O)(=O)Nc1ccc2c(c1)S(=O)(=O)N=C(c1c(O)n3cc(F)ccc3c(Cc3cc(F)cc(F)c3)c1=O)N2 [Compound 101] | < 100 | < 100 |
| CS(=O)(=O)Nc1ccc2c(c1)S(=O)(=O)N=C(c1c(O)n3cc(F)ccc3c(Cc3ccc(F)cc3)c1=O)N2 [Compound 103S] | < 100 | < 100 |
| CS(=O)(=O)Nc1ccc2c(c1)S(=O)(=O)N=C(c1c(O)n3cc(F)ccc3c(Cc3ccc(F)c(F)c3)c1=O)N2 [Compound 102S] | < 100 | < 100 |
| CS(=O)(=O)Nc1ccc2c(c1)S(=O)(=O)N=C(c1c(O)n3ccccc3c(Cc3cc(F)cc(F)c3)c1=O)N2 [Compound 105S] | < 100 | < 100 |
